# Test results reported in ChEMBL document CHEMBL1201862, “PubChem BioAssay data set” (2004).
# The source made the active and inactive calls.
# Key:
# [1] = target: T1, RNA-binding protein pos-1 (Caenorhabditis elegans, UniProt G5EF15); experiment: inhibitors of POS-1/mex-3 RNA binding, dose response, biochemical, fluorescence polarization (AID 1964);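 note: purified POS-1 fused to maltose binding protein made in E. coli; potency of compounds blocking POS-1 binding to fluorescent RNA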
# T1 sequence (G5EF15 whole entry): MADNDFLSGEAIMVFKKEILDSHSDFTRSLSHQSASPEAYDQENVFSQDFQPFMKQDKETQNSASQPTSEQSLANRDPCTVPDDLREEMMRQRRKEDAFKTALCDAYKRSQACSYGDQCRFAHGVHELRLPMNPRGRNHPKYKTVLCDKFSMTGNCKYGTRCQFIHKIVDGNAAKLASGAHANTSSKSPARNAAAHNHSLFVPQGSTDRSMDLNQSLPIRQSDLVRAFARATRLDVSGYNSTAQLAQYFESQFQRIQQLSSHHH
# [2] = target: T2, Zinc finger protein mex-5 (Caenorhabditis elegans, UniProt Q9XUB2); experiment: MEX-5/TCR-2 RNA interaction inhibitors, dose response, biochemical, C. elegans, fluorescence polarization (AID 1960)
# T2 sequence (Q9XUB2 whole entry): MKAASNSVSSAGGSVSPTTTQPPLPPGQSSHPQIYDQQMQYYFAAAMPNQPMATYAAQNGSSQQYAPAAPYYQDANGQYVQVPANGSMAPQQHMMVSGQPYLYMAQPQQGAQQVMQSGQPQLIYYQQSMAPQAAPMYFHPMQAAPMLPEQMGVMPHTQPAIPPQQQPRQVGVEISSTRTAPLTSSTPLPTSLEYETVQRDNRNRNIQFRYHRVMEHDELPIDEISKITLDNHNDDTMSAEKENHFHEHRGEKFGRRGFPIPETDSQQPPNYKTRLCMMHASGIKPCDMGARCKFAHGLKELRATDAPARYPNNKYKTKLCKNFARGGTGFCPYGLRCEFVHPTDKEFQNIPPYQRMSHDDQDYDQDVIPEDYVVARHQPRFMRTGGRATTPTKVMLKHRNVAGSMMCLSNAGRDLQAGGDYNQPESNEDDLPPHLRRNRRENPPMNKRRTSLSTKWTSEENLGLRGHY
# [3] = target: T3, Caspase-6 (Homo sapiens, UniProt P55212); experiment: human caspase-6 inhibitors, dose response, biochemical, VEID-R110 fluorescence, cherry-pick (AID 720632)
# T3 sequence (P55212 whole entry): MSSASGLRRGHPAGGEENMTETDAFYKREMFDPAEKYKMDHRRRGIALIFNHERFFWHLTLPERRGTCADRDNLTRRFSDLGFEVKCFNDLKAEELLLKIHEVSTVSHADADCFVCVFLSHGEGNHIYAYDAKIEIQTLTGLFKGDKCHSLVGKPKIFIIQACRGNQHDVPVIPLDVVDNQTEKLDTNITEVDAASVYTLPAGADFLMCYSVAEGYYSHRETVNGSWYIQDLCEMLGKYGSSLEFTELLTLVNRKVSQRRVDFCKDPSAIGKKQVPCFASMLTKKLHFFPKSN
# [4] = cells; format: functional, cell-based
# [5] = cells; format: functional, cell-based; remark: listed apart in the source
# [6] = target: T4, Cytochrome P450 1A2 (Homo sapiens, UniProt P05177);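 note: PubChem cytochrome P450 panel assay, CYP1A2 panel member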
# T4 sequence (P05177 whole entry): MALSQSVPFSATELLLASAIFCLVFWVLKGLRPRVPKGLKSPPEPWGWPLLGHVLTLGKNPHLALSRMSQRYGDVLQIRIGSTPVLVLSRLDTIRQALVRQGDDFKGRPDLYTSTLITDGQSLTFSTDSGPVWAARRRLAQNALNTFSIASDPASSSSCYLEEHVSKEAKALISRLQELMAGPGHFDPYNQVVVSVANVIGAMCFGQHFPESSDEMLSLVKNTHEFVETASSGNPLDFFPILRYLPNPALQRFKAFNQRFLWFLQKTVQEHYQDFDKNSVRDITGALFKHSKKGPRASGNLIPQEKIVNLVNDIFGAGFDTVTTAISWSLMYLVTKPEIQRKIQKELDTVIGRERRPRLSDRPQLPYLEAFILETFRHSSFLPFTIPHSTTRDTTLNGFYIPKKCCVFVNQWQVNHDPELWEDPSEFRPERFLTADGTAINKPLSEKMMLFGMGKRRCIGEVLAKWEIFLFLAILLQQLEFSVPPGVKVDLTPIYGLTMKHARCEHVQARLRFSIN
# [7] = target: Cytochrome P450 3A4 (Homo sapiens, UniProt P08684);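 note: CYP3A4 tested as one member of a cytochrome P450 panel screen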
# Cytochrome P450 3A4, sequence (P08684 whole entry): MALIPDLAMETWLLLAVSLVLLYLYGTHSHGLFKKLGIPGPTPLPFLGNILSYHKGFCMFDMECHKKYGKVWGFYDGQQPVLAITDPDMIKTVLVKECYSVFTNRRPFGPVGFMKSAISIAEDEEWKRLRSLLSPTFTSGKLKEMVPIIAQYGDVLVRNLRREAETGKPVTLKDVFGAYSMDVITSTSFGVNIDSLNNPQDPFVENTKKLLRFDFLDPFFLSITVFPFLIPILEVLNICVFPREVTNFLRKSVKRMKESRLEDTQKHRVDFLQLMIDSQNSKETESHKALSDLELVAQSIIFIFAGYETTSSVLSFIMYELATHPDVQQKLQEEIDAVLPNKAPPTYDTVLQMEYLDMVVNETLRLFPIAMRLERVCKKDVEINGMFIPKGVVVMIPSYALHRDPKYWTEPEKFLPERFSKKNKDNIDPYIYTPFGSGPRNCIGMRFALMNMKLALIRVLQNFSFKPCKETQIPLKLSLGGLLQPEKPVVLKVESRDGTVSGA
# [8] = target: Cytochrome P450 2C9 (Homo sapiens, UniProt P11712)
# Cytochrome P450 2C9, sequence (P11712 whole entry): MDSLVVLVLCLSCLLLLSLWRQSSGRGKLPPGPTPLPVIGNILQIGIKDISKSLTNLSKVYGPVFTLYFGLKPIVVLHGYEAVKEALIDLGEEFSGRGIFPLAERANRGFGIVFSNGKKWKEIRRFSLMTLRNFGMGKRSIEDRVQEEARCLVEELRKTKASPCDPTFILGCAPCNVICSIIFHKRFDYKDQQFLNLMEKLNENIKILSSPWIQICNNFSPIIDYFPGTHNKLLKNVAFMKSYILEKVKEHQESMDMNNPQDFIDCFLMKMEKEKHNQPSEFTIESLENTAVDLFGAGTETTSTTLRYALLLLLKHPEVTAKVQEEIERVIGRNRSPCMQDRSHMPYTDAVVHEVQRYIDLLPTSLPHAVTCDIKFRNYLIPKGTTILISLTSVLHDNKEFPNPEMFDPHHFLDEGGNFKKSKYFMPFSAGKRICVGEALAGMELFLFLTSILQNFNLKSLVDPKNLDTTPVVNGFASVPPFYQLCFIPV
# [9] = cells; format: functional, cell-based; remark: listed apart in the source
# [10] = target: T5, Apoptotic protease-activating factor 1 (Homo sapiens, UniProt O14727); format: functional
# T5 sequence (O14727 whole entry): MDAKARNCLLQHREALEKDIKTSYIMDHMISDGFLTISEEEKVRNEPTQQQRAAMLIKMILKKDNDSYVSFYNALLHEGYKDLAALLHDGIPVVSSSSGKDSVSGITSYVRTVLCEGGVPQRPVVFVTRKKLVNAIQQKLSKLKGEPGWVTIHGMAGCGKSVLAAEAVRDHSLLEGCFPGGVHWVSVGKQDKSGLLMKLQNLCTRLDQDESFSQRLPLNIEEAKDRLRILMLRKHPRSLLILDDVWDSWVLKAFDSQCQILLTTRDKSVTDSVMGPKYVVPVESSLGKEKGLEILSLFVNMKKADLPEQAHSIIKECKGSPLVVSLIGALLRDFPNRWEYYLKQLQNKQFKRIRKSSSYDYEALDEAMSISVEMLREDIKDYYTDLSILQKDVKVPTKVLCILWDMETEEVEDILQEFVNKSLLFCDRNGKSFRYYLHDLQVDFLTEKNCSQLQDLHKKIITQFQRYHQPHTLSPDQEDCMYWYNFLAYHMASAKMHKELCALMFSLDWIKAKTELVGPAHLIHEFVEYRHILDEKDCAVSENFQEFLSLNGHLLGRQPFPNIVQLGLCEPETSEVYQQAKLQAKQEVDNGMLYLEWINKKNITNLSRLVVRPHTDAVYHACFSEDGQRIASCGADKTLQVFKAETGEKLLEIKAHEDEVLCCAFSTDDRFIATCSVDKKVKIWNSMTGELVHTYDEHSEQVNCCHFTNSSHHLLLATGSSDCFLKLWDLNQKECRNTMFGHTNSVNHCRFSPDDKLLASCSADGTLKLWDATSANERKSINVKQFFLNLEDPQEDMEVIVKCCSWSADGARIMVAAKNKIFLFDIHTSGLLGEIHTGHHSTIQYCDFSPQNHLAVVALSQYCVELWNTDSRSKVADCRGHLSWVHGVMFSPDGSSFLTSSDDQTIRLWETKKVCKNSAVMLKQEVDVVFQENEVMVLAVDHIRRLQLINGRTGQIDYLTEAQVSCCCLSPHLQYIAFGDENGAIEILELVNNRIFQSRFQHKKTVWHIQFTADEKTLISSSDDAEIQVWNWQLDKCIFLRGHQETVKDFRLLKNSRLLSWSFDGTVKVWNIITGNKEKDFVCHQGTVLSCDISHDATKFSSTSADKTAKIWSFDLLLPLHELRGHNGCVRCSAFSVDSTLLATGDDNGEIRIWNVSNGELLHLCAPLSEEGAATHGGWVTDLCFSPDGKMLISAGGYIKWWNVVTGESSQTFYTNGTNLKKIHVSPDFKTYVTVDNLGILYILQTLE
# [11] = cells; format: functional, cell-based; remark: listed apart in the source
# [12] = target: T6, Corticotropin-releasing factor receptor 2/Corticotropin-releasing factor-binding protein (Homo sapiens, UniProt P24387+Q13324); experiment: activators of CRF receptor 2 with binding protein – uHTS hits, confirmation (AID 602473); format: functional; settings: read-out: EC50_Mean
# T6 sequence (Q13324 whole entry): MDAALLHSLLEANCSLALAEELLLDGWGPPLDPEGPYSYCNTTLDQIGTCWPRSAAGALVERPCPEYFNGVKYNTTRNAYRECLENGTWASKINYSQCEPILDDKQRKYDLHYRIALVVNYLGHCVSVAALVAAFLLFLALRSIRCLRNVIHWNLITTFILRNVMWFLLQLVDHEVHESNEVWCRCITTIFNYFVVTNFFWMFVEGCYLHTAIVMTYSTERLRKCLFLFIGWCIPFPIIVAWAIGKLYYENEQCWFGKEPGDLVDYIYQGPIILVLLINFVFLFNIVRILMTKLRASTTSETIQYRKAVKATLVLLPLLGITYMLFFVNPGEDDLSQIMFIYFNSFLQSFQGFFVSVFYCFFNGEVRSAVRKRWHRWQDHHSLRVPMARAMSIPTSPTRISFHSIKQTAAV
# T6 sequence (P24387 whole entry): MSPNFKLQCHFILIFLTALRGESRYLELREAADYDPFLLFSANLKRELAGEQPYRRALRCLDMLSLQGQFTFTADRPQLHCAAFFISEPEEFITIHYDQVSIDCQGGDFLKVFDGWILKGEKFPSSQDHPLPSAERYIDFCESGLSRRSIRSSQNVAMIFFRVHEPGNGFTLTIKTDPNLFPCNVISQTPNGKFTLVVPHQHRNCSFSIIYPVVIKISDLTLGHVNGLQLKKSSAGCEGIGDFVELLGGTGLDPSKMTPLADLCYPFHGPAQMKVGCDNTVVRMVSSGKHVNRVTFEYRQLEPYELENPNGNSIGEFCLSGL
# [13] = CRF-BP/CRF-R2 complex antagonists, dose response, cell-based, uHTS hits, 384-well (AID 651639); format: functional, Homo sapiens; settings: read-out: IC50_Mean
# [14] = target: T7, Mannose-6-phosphate isomerase (Homo sapiens, UniProt P34949); experiment: human PMI inhibitors, high substrate, primary screen, biochemical, fluorescence intensity, high mannose 6-phosphate (AID 1220)
# T7 sequence (P34949 whole entry): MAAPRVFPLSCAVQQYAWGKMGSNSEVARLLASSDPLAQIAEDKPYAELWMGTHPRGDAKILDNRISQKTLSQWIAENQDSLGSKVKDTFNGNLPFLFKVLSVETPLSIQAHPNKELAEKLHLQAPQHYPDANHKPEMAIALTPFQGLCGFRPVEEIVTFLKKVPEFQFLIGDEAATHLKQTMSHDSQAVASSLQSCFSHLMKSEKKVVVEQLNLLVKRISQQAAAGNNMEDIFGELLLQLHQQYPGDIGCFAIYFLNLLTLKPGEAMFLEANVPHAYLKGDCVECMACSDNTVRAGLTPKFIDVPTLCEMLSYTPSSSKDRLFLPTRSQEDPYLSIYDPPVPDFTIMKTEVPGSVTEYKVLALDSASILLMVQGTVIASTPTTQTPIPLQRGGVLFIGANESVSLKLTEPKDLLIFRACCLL
# [15] = target: T6, Corticotropin-releasing factor receptor 2/Corticotropin-releasing factor-binding protein; experiment: Dose Response confirmation of uHTS hits for small molecule antagonists of the CRF-binding protein and CRF-R2 receptor complex.; format: functional; settings: read-out: IC50_Mean
# [16] = cells; format: functional
# [17] = cytotoxicity in HEK-293T cells, dose response, cytotoxicity control for BCR NF-kB inhibitor project, luminescence, B-cell screen hits (AID 489021); format: functional, cell-based;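 note: HEK-293T cells carrying an NF-kB luciferase reporter; cells exposed to compound for about 14 hours before viability readout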
structure (smiles),measurement,setting,value
O=C(Nc1ccccc1F)c1coc(=O)c(Br)c1,EC50,[1],> 300 µM (not active)
same,EC50,[2],> 300 µM (not active)
same,AC50,[3],23.8 µM (active)
Oc1ccc(/C=N/CC2COc3ccccc3O2)cc1 (stereo not given),EC50,[4],> 29.9 µM (inactive)
same,IC50,[5],> 29.9 µM (inactive)
O=C(NCc1ccccc1)c1ccc(Cl)cc1[N+](=O)[O-],AC50,[6],20 µM (inconclusive)
same,AC50,[7],22.4 µM (inconclusive)
same,AC50,[8],inconclusive
CCCCNS(=O)(=O)c1cc(-c2nn(C)c(=O)c3ccccc23)ccc1C,AC50,[3],21.3 µM (active)
COc1c(NC(C)=O)c2ccccc2c2ccccc12,AC50,[8],inconclusive
C[C@H](O)[C@@H]1C(=O)N2CCc3c([nH]c4ccccc34)[C@@H]2C[C@@H]1N(C)C(=O)Nc1cccc2ccccc12,AC50,[3],35.9 µM (active)
CC1CCN(S(=O)(=O)c2ccc3c4c2CC(=O)N4CC(C)S3)CC1 (stereo not given),EC50,[9],> 350 µM (not active)
same,IC50,[10],3.64 µM (active)
same,EC50,[11],> 350 µM (not active)
Cc1nc2c(C(=O)NCCc3ccccc3)cnn2c(O)c1Cl,EC50,[12],> 53 µM (inactive)
same,IC50,[13],> 20 µM (inactive)
same,IC50,[14],> 50 µM (not active)
same,IC50,[15],44.5 µM (active)
O=C(COc1ccc(F)cc1)NNC(=O)c1cc2ccccc2oc1=O,EC50,[4],> 29.9 µM (inactive)
same,IC50,[5],> 29.9 µM (inactive)
CCN(CC(=O)NCc1cccs1)S(=O)(=O)c1ccc(C(C)C)cc1,AC50,[8],inconclusive
CC(=C1C(=O)c2ccccc2C1=O)N1CCc2ccccc2C1,EC50,[4],> 29.9 µM (inactive)
same,IC50,[5],> 29.9 µM (inactive)
O=C(CSc1ccc(-c2ccccn2)nn1)c1ccc(F)cc1,IC50,[14],> 50 µM (not active)
CC(=O)c1ccc(NC(=O)c2cc(CC(C)C)on2)cc1,IC50,[16],12 µM (active)
O=C(OCn1nnc2ccccc2c1=O)c1ccc(N2CCOCC2)c([N+](=O)[O-])c1,IC50,[16],10 µM (active)
CN1C(=O)CSc2ccc(NC(=O)N3CCN(c4ccccc4)CC3)cc21,IC50,[17],> 80 µM (inactive)
Cc1ccc2c(c1)c1c3n2CCN=C3CCC1,IC50,[16],11.9 µM (active)
Cc1ccc(-n2cc(C(=O)c3ccc4ccccc4c3O)cn2)cc1,AC50,[6],1.41 µM (inconclusive)
same,AC50,[8],inconclusive
